Source: patent US9216957B2, “Androgen receptor antagonists and uses thereof” (SUZHOU KINTOR PHARMACEUTICALS, INC., priority 2011, dated 2015)

Test system: Prostate-specific antigen (PSA) production in LNCaP cells
Experiment: PSA Assay (inhibition of PSA production in prostate cancer cells, ELISA)
Format: cell-based, human
Details: Homo sapiens, LNCaP, 72 h, read-out: LNCAP IC50 (uM), inhibition of PSA production, LNCaP cells, R1881 1 ng/ml, three days, seven point assay
Protocol: PSA Assay (Inhibition Test of the Compound of the Present Invention on Prostate-Specific Antigen (PSA) Production in Various Prostate Cancer Cells).
Androgen dependent LNCaP cells were purchased from the American Type Culture Collection (ATCC, Manassas, Va.). These cells were grown in RPMI 1640 medium supplemented with 10% fetal bovine serum (FBS), 100 U/mL penicillin, 100 μg/mL streptomycin, and 0.25 μg/mL amphotericin B. The cells were maintained at 37° C. and 5% CO2. LNCaP cells between passage 20 and 35 were used for experiments. LNCaP is a hormone sensitive cell line. For the PSA assay, human prostate cancer cells LNCaP were seeded in a 96-well plate at a concentration of 5000 cells/100 μl/well. On the following day, Methyltrienolone (R1881, AR agonist) (final concentration 1 ng/ml), test compounds or bicalutamide (Casodex®, AstraZeneca) (final concentration 0.005 to 20 μM) were added. Three days after the addition, the concentration of PSA in the supernatant of the culture solution was measured by ELISA. ELISAs for human PSA in culture medium were performed using the ultra-sensitive assay procedure and reagents in the Active™ PSA assay kit (Diagnostic Systems Laboratories Inc., Webster, Tex.). Culture medium and standards (200 μl/well) were incubated in antibody-coated plates for 2 h at room temperature on a Titer plate shaker at 500-600 rpm. Wells were then washed five times. The HRP conjugate was diluted 1:20 with assay buffer, and 100 μl was added to all wells. The plates were incubated for 30 min at room temperature on the shaker and washed as before, and 100 μl TMB (3,3′,5,5′-tetramethylbenzidine, 0.4 g/l) was added. The plates were incubated for 10 min on the shaker, and the reaction was terminated with 100 μl stop solution. The plates were read using a plate reader at 450 nm with a 650 nm reference filter. PSA levels were normalized for differences in growth of LNCaP cells following various treatments as determined by the MTS assay. IC50 of PSA was calculated based on a seven point assay (concentrations of tested compound) and expressed as micromolar (uM).

Row | SMILES | IC50
1 | CC1(C)C(=O)N(c2ccc(C#N)c(C(F)(F)F)c2)C(=S)N1c1ccc(CCCC(=O)N2CCOCC2)nc1 [Example 56, 4-{4,4-Dimethyl-3-[6-(4-morpholin-4-yl-4-oxo-butyl)-pyridin-3-yl]-5-oxo-2-thioxo-imidazolidin-1-yl}-2-trifluoromethyl-benzonitrile] | 3.64 µM
2 | CNC(=O)CCCc1ccc(N2C(=S)N(c3ccc(C#N)c(C(F)(F)F)c3F)C(=O)C2(C)C)cn1 [Example 57, 4-{5-[3-(4-Cyano-2-fluoro-3-trifluoromethyl-phenyl)-5,5-dimethyl-4-oxo-2-thioxo-imidazolidin-1-yl]-pyridin-2-yl}-N-methyl-butyramide] | 1.91 µM
3 | CC1(C)C(=O)N(c2ccc(C#N)c(C(F)(F)F)c2F)C(=S)N1c1ccc(CCCC(=O)N2CCOCC2)c(F)c1 [Example 58, 3-fluoro-4-(3-(3-fluoro-4-(4-morpholino-4-oxobutyl)phenyl)-4,4-dimethyl-5-oxo-2-thioxoimidazolidin-1-yl)-2-(trifluoromethyl)benzonitrile] | 0.53 µM
4 | CC1(C)C(=O)N(c2cc(C(F)(F)F)c(C#N)cc2F)C(=S)N1c1ccc(CCCc2ncc[nH]2)c(F)c1 [Example 60, 4-(3-(4-(3-(1H-imidazol-2-yl)propyl)-3-fluorophenyl)-4,4-dimethyl-5-oxo-2-thioxoimidazolidin-1-yl)-5-fluoro-2-(trifluoromethyl)benzonitrile] | 3.3 µM
5 | N#Cc1ccc(N2C(=O)C3(CCC3)N(c3ccc(CCCC(=O)N4CC(O)C4)c(F)c3)C2=S)c(F)c1C(F)(F)F [Example 61, 3-Fluoro-4-(5-{3-fluoro-4-[4-(3-hydroxy-azetidin-1-yl)-4-oxo-butyl]-phenyl}-8-oxo-6-thioxo-5,7-diaza-spiro[3.4]oct-7-yl)-2-trifluoromethyl-benzonitrile] | 0.19 µM
6 | CC1(C)C(=O)N(c2ccc(C#N)c(C(F)(F)F)c2F)C(=S)N1c1ccc(CCCc2ncco2)nc1 [Example 63, 4-{4,4-Dimethyl-3-[6-(3-oxazol-2-yl-propyl)-pyridin-3-yl]-5-oxo-2-thioxo-imidazolidin-1-yl}-3-fluoro-2-trifluoromethyl-benzonitrile] | 0.1 µM
7 | CC1(C)C(=O)N(c2ccc(C#N)c(C(F)(F)F)c2)C(=S)N1c1ccc(CCCc2ncco2)nc1 [Example 64, 4-{4,4-Dimethyl-3-[6-(3-oxazol-2-yl-propyl)-pyridin-3-yl]-5-oxo-2-thioxo-imidazolidin-1-yl}-2-trifluoromethyl-benzonitrile] | 0.45 µM
8 | N#Cc1ccc(N2C(=O)C3(CCC3)N(c3ccc(CCCc4ncco4)nc3)C2=S)c(F)c1C(F)(F)F [Example 65, 3-Fluoro-4-{5-[6-(3-oxazol-2-yl-propyl)-pyridin-3-yl]-8-oxo-6-thioxo-5,7-diaza-spiro[3.4]oct-7-yl}-2-trifluoromethyl-benzonitrile] | 0.6 µM
9 | CC1(C)C(=O)N(c2ccc(C#N)c(C(F)(F)F)c2F)C(=S)N1c1ccc(CCCc2ncc[nH]2)nc1 [Example 66, 4-(3-(6-(3-(1H-imidazol-2-yl)propyl)pyridin-3-yl)-4,4-dimethyl-5-oxo-2-thioxoimidazolidin-1-yl)-3-fluoro-2-(trifluoromethyl)benzonitrile] | 1.27 µM
10 | CC1(C)C(=O)N(c2ccc(C#N)c(C(F)(F)F)c2F)C(=S)N1c1ccc(CCCc2nccs2)nc1 [Example 67, 4-(4,4-dimethyl-5-oxo-3-(6-(3-(thiazol-2-yl)propyl)pyridin-3-yl)-2-thioxoimidazolidin-1-yl)-3-fluoro-2-(trifluoromethyl)benzonitrile] | 0.27 µM
11 | N#Cc1ccc(N2C(=O)C3(CCC3)N(c3ccc(CCCc4nccs4)nc3)C2=S)c(F)c1C(F)(F)F [Example 68, 3-fluoro-4-(8-oxo-5-(6-(3-(thiazol-2-yl)propyl)pyridin-3-yl)-6-thioxo-5,7-diazaspiro[3.4]octan-7-yl)-2-(trifluoromethyl)benzonitrile] | 0.61 µM
12 | COc1cc(N2C(=O)C(C)(C)N(c3ccc(CCCc4nccs4)nc3)C2=S)ccc1C#N [Example 69, 4-(4,4-dimethyl-5-oxo-3-(6-(3-(thiazol-2-yl)propyl)pyridin-3-yl)-2-thioxoimidazolidin-1-yl)-2-methoxybenzonitrile] | 0.68 µM

Same assay, conditions: read-out: LNCAP IC50; inhibition of PSA production, LNCaP cells, R1881 1 ng/ml, three days, seven point assay

Row | SMILES | IC50
13 | CC1(C)C(=O)N(c2ccc(C#N)c(Cl)c2F)C(=S)N1c1ccc(CCCC#N)cc1 [Example 59, 2-chloro-4-(3-(4-(3-cyanopropyl)phenyl)-4,4-dimethyl-5-oxo-2-thioxoimidazolidin-1-yl)-3-fluorobenzonitrile] | 0.48 µM
